Measurements: BindingDB's records for doi:10.1016/j.bioorg.2014.12.001 (Hazara University, 2015)

Molecular target: Alpha-glucosidase MAL12 (Saccharomyces cerevisiae (strain ATCC 204508 / S288c), UniProt P53341)
Experiment: Alpha-glucosidase Assay
Description: Typically, α-glucosidase activity was assayed in 50 mM phosphate buffer (pH 6.8) containing 5% v/v DMSO and PNP glycoside was used as a substrate. The inhibitors were pre-incubated with enzyme at 37 °C for 0.5 h. The substrate was then added and the enzymatic reaction was carried out at 37 °C for 60 min. The reaction was monitored spectrophotometrically by measuring the absorbance at 400 nm.

Alpha-glucosidase MAL12, sequence (P53341 whole entry): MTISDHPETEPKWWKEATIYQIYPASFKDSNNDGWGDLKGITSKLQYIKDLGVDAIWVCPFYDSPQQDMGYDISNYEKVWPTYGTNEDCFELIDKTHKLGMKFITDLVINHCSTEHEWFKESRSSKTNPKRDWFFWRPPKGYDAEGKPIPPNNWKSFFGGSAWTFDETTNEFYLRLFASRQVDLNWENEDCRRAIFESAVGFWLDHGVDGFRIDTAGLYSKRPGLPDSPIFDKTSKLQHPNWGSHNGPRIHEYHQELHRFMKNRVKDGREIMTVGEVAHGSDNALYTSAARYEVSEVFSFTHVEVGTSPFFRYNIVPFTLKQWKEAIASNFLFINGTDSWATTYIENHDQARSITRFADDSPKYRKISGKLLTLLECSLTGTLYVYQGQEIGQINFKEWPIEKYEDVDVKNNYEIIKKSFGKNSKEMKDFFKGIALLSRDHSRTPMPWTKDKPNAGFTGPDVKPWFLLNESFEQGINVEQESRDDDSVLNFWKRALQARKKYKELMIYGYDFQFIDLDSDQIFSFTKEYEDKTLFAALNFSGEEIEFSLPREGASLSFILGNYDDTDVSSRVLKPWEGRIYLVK

Compound	IC50
COc1ccccc1C(=O)CSc1nnc2c(n1)[nH]c1ccccc12 [2-(5H-[1,2,4]triazino[5,6-b]indol-3-ylthio)-1-(2-methoxyphenyl)-ethanone (9)]	51.6 µM
O=C(CSc1nnc2c(n1)[nH]c1ccccc12)c1cccc(Br)c1 [2-(5H-[1,2,4]triazino[5,6-b]indol-3-ylthio)-1-(3-bromophenyl)-ethanone (11)]	37.1 µM
O=C(CSc1nnc2c(n1)[nH]c1ccccc12)c1cccc(F)c1 [2-(5H-[1,2,4]triazino[5,6-b]indol-3-ylthio)-1-(3-flourophenyl)-ethanone (5)]	38.1 µM
O=C(CSc1nnc2c(n1)[nH]c1ccccc12)c1cccc(O)c1 [2-(5H-[1,2,4]triazino[5,6-b]indol-3-ylthio)-1-(3-hydroxyphenyl)-ethanone (1)]	2.46 µM
COc1cccc(C(=O)CSc2nnc3c(n2)[nH]c2ccccc23)c1 [2-(5H-[1,2,4]triazino[5,6-b]indol-3-ylthio)-1-(3-methoxyphenyl)-ethanone (10)]	313 µM
O=C(CSc1nnc2c(n1)[nH]c1ccccc12)c1ccc(Br)cc1 [2-(5H-[1,2,4]triazino[5,6-b]indol-3-ylthio)-1-(4-bromophenyl)-ethanone (3)]	37.8 µM
COc1ccc(C(=O)CSc2nnc3c(n2)[nH]c2ccccc23)cc1 [2-(5H-[1,2,4]triazino[5,6-b]indol-3-ylthio)-1-(4-methoxyphenyl)-ethanone (4)]	28.9 µM
O=C(CSc1nnc2c(n1)[nH]c1ccccc12)c1ccc(-c2ccccc2)cc1 [2-(5H-[1,2,4]triazino[5,6-b]indol-3-ylthio)-1-(biphenyl-4-yl)-ethanone (2)]	78.4 µM
CC(Sc1nnc2c(n1)[nH]c1ccccc12)C(=O)c1ccccc1 (stereo not given) [2-(5H-[1,2,4]triazino[5,6-b]indol-3-ylthio)-1-phenylpropane-1-one (8)]	36.9 µM
O=C(CSc1nnc2c(n1)[nH]c1ccccc12)c1cc2ccccc2oc1=O [3-(2-(5H-[1,2,4]triazino[5,6-b]indol-3-ylthio)acetyl)-2H-chromen-2-one (7)]	37.4 µM
